Read-outs that look alike come from different tables or passages of the source.
Tests used:
[1] = system: Key Broadleaf Weed and Crop Species; test: Post-emergent Test II herbicidal activity (Table 15); type: in vivo; conditions: post-emergence, 336 h, 14 d; for pest or weed control at 35 g/ha: 35 g ai/ha; for pest or weed control at 70 g/ha: 70 g ai/ha; for pest or weed control at 140 g/ha: 140 g ai/ha
Outline: (§1)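 Visual injury rating (0 = none, 100% = complete kill) made 14 d after treatment, relative to untreated plants. Compounds in an acetone/DMSO/aqueous crop-oil/surfactant spray, at top rate and serial 1/2×-1/16× rates, were applied at 187 L/ha overhead to first-second true leaf plants raised 7-21 d in greenhouse.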

[2] = system: Key Grass and Sedge Weeds as well as Grass Crops; test: Post-emergent Test II herbicidal activity (Table 16); type: in vivo; conditions: post-emergence, 336 h, 14 d; for pest or weed control at 35 g/ha: 35 g ai/ha; for pest or weed control at 70 g/ha: 70 g ai/ha; for pest or weed control at 140 g/ha: 140 g ai/ha
Outline: as §1

[3] = Abutilon theophrasti, velvetleaf (Abutilon theophrasti), read-out: Visual Growth Reduction (%) 14 Days After Application, ABUTH
[4] = Amaranthus retroflexus, redroot pigweed (Amaranthus retroflexus), read-out: Visual Growth Reduction (%) 14 Days After Application, AMARE
[5] = Brassica napus, oilseed rape, canola (Brassica napus), read-out: Visual Growth Reduction (%) 14 Days After Application, BRSNN
[6] = Chenopodium album, lambsquarters (Chenopodium album), read-out: Visual Growth Reduction (%) 14 Days After Application, CHEAL
[7] = Euphorbia heterophylla, wild poinsettia (Euphorbia heterophylla), read-out: Visual Growth Reduction (%) 14 Days After Application, EPHHL
[8] = Helianthus annuus, sunflower (Helianthus annuus), read-out: Visual Growth Reduction (%) 14 Days After Application, HELAN
[9] = Cyperus esculentus, yellow nutsedge (Cyperus esculentus), read-out: Visual Growth Reduction (%) 14 Days After Application, CYPES
[10] = Echinochloa crus-galli, barnyardgrass (Echinochloa crus-galli), read-out: Visual Growth Reduction (%) 14 Days After Application, ECHCG
[11] = Oryza sativa, rice (Oryza sativa), read-out: Visual Growth Reduction (%) 14 Days After Application, ORYSA
[12] = Setaria faberi, giant foxtail (Setaria faberi), read-out: Visual Growth Reduction (%) 14 Days After Application, SETFA
[13] = Triticum aestivum, wheat, spring (Triticum aestivum), read-out: Visual Growth Reduction (%) 14 Days After Application, TRZAS
[14] = Zea mays, maize, corn (Zea mays), read-out: Visual Growth Reduction (%) 14 Days After Application, ZEAMX

| SMILES | pest or weed control at 35 g/ha [1, 3] [%] | pest or weed control at 70 g/ha [1, 3] [%] | pest or weed control at 140 g/ha [1, 3] [%] | pest or weed control at 35 g/ha [1, 4] [%] | pest or weed control at 70 g/ha [1, 4] [%] | pest or weed control at 140 g/ha [1, 4] [%] | pest or weed control at 35 g/ha [1, 5] [%] | pest or weed control at 70 g/ha [1, 5] [%] | pest or weed control at 140 g/ha [1, 5] [%] | pest or weed control at 35 g/ha [1, 6] [%] | pest or weed control at 70 g/ha [1, 6] [%] | pest or weed control at 140 g/ha [1, 6] [%] | pest or weed control at 35 g/ha [1, 7] [%] | pest or weed control at 70 g/ha [1, 7] [%] | pest or weed control at 140 g/ha [1, 7] [%] | pest or weed control at 35 g/ha [1, 8] [%] | pest or weed control at 70 g/ha [1, 8] [%] | pest or weed control at 140 g/ha [1, 8] [%] | pest or weed control at 35 g/ha [2, 9] [%] | pest or weed control at 70 g/ha [2, 9] [%] | further results |
| --- | --- | --- | --- | --- | --- | --- | --- | --- | --- | --- | --- | --- | --- | --- | --- | --- | --- | --- | --- | --- | --- |
| C=Cc1c(C(=O)O)nc(-c2ccc3cc[nH]c3c2F)c(F)c1N [Compound 1.19] | 95 to 100 | 95 to 100 | 95 to 100 | 95 to 100 | 95 to 100 | 95 to 100 | 95 to 100 | 95 to 100 | 95 to 100 | 95 to 100 | 95 to 100 | 95 to 100 | 95 to 100 | 95 to 100 | 95 to 100 | 60 to 74 | 75 to 84 | 95 to 100 | 85 to 94 | 75 to 84 | pest or weed control at 140 g/ha [2, 9]: 95 to 100%; pest or weed control at 35 g/ha [2, 10]: 85 to 94%; pest or weed control at 70 g/ha [2, 10]: 85 to 94%; pest or weed control at 140 g/ha [2, 10]: 95 to 100%; pest or weed control at 35 g/ha [2, 11]: 30 to 44%; pest or weed control at 70 g/ha [2, 11]: 45 to 59%; pest or weed control at 140 g/ha [2, 11]: 60 to 74%; pest or weed control at 35 g/ha [2, 12]: 60 to 74%; pest or weed control at 70 g/ha [2, 12]: 75 to 84%; pest or weed control at 140 g/ha [2, 12]: 85 to 94%; pest or weed control at 35 g/ha [2, 13]: 60 to 74%; pest or weed control at 70 g/ha [2, 13]: 75 to 84%; pest or weed control at 140 g/ha [2, 13]: 75 to 84%; pest or weed control at 35 g/ha [2, 14]: 60 to 74%; pest or weed control at 70 g/ha [2, 14]: 60 to 74%; pest or weed control at 140 g/ha [2, 14]: 85 to 94% |
| COc1c(N)nc(-c2ccc3cc[nH]c3c2F)nc1C(=O)O [Compound 1.35] | 0 to 29 | 0 to 29 | 0 to 29 | 75 to 84 | 85 to 94 | 95 to 100 | 95 to 100 | 95 to 100 | 95 to 100 | 0 to 29 | 0 to 29 | 85 to 94 | 75 to 84 | 75 to 84 | 85 to 94 | 30 to 44 | 60 to 74 | 95 to 100 | 0 to 29 | 0 to 29 | pest or weed control at 140 g/ha [2, 9]: 0 to 29%; pest or weed control at 35 g/ha [2, 10]: 0 to 29%; pest or weed control at 70 g/ha [2, 10]: 0 to 29%; pest or weed control at 140 g/ha [2, 10]: 0 to 29%; pest or weed control at 35 g/ha [2, 11]: 0 to 29%; pest or weed control at 70 g/ha [2, 11]: 0 to 29%; pest or weed control at 140 g/ha [2, 11]: 0 to 29%; pest or weed control at 35 g/ha [2, 12]: 0 to 29%; pest or weed control at 70 g/ha [2, 12]: 0 to 29%; pest or weed control at 140 g/ha [2, 12]: 0 to 29%; pest or weed control at 35 g/ha [2, 13]: 0 to 29%; pest or weed control at 70 g/ha [2, 13]: 30 to 44%; pest or weed control at 140 g/ha [2, 13]: 45 to 59%; pest or weed control at 35 g/ha [2, 14]: 0 to 29%; pest or weed control at 70 g/ha [2, 14]: 0 to 29%; pest or weed control at 140 g/ha [2, 14]: 0 to 29% |
| COc1c(N)nc(-c2cc3[nH]ccc3cc2F)nc1C(=O)O [Compound 1.37] | 0 to 29 | 0 to 29 | 0 to 29 | 0 to 29 | 0 to 29 | 0 to 29 | 30 to 44 | 60 to 74 | 75 to 84 | 0 to 29 | 0 to 29 | 0 to 29 | 0 to 29 | 0 to 29 | 0 to 29 | 0 to 29 | 0 to 29 | 0 to 29 | 0 to 29 | 0 to 29 | pest or weed control at 140 g/ha [2, 9]: 0 to 29%; pest or weed control at 35 g/ha [2, 10]: 0 to 29%; pest or weed control at 70 g/ha [2, 10]: 0 to 29%; pest or weed control at 140 g/ha [2, 10]: 0 to 29%; pest or weed control at 35 g/ha [2, 11]: 0 to 29%; pest or weed control at 70 g/ha [2, 11]: 0 to 29%; pest or weed control at 140 g/ha [2, 11]: 0 to 29%; pest or weed control at 35 g/ha [2, 12]: 0 to 29%; pest or weed control at 70 g/ha [2, 12]: 0 to 29%; pest or weed control at 140 g/ha [2, 12]: 0 to 29%; pest or weed control at 35 g/ha [2, 13]: 0 to 29%; pest or weed control at 70 g/ha [2, 13]: 0 to 29%; pest or weed control at 140 g/ha [2, 13]: 0 to 29%; pest or weed control at 35 g/ha [2, 14]: 0 to 29%; pest or weed control at 70 g/ha [2, 14]: 0 to 29%; pest or weed control at 140 g/ha [2, 14]: 0 to 29% |

From US20170050957A1, “4-AMINO-6-(HETEROCYCLIC)PICOLINATES AND 6-AMINO-2-(HETEROCYCLIC)PYRIMIDINE-4-CARBOXYLATES AND THEIR USE AS HERBICIDES” (Dow AgroSciences LLC, priority 2013, published 2017)
